# In US6884809B2 (Cornell Research Foundation, Inc., priority 2001, dated 2005):
# Tests used:
# Na+/H+ exchanger (NHE) = assay: NHE activity: Na+-dependent pHi recovery after NH4Cl acid pulse in BCECF-loaded SKNMC-H3 cells; type: cell-based, human
# H3R = H3R (Homo sapiens, UniProt Q9Y5N1); details: read-out: EC50 to activate the H3R; cited from earlier work
# SH-SY5Y cells [1] = type: cell-based, human
# SH-SY5Y-H3 cells [2] = type: cell-based, human
# [3] = system: guinea-pig heart synaptosomes; type: cell-based
# SH-SY5Y-H3 cells [4] = assay: Cai measurements (Fura-2) in K+-depolarized H3R-transfected SH-SY5Y-H3 cells; type: cell-based, human
# SH-SY5Y cells [5] = type: cell-based, human; remark: listed apart in the source
# [6] = thioperamide 300 nM plus imetit 100 nM
# Sequence of H3R (Q9Y5N1 whole entry, species assumed): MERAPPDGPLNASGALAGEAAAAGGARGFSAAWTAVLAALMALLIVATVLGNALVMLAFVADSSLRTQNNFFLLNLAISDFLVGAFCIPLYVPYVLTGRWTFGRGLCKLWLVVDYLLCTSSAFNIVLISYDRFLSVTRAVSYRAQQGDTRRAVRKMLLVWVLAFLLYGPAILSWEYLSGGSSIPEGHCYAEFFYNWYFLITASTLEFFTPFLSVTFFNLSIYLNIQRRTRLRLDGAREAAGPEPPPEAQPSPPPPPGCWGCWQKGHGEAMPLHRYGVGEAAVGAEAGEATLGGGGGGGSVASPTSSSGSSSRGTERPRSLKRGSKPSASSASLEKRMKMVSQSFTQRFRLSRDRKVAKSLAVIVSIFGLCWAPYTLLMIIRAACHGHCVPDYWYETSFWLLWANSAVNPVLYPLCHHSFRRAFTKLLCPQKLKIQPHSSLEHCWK
compound,measurement,setting,value
"CCN(c1nc(N)c(C(=O)N=C(N)N)nc1Cl)C(C)C [EIPA, 5-(N-ethyl-N-isopropyl)amiloride]",inhibition of NHE activity,Na+/H+ exchanger (NHE); EIPA 10 uM,50%
same,mean rate of Na+-dependent intracellular alkalinization (NHE activity),"Na+/H+ exchanger (NHE); EIPA 10 uM, control 0.074",0.031 pHi units/min
"N=C(N)SCCc1cnc[nH]1 [imetit, Imetit]",EC50,H3R,2 nM
same,inhibition of NHE activity,Na+/H+ exchanger (NHE); imetit 100 nM,35%
same,"rate of intracellular alkalinization, representative single cell","Na+/H+ exchanger (NHE); imetit 100 nM, cell of FIG. 1B, control cell 0.094",0.050 pHi units/min
same,final pHi after re-introduction of Na+,"Na+/H+ exchanger (NHE); imetit 100 nM, n=277 cells",6.61±0.01
same,initial pHi,"Na+/H+ exchanger (NHE); imetit-treated cells, n=277",6.74±0.01
same,pHi right before Na+ was reintroduced (0 Na pHi),"Na+/H+ exchanger (NHE); imetit-treated cells, n=277",6.26±0.01
same,cells with rates lower than the mean control rate of 0.074 pHi units/min,"Na+/H+ exchanger (NHE); imetit-treated, 277 cells",77%
same,K+-elicited Cai transients,SH-SY5Y cells [1],fails to affect Cai transients
same,effect on peak Cai concentration elicited by 100 mM K+,SH-SY5Y cells [1],failed to affect peak Cai concentration
same,concentration-response curve for K+-induced exocytosis of [3H]NE,SH-SY5Y-H3 cells [2],significantly shifted downwards
same,concentration-response curve for K+-induced exocytosis of endogenous NE,[3],significantly shifted downwards
same,K+-elicited Ca2+ transients,SH-SY5Y-H3 cells [4],markedly depressed
same,decrease in peak Cai concentration elicited by 100 mM K+,SH-SY5Y-H3 cells [4],55%
"S=C(NC1CCCCC1)N1CCC(c2c[nH]cn2)CC1 [thioperamide, Thioperamide]",effect on NHE activity,Na+/H+ exchanger (NHE); thioperamide 300 nM alone,did not significantly modify NHE activity
same,effect on imetit-induced NHE attenuation,Na+/H+ exchanger (NHE); [6],abolished the imetit-induced NHE attenuation
same,effect on imetit-induced attenuation of [3H]NE exocytosis,SH-SY5Y-H3 cells [2],prevented
same,effect on imetit-induced attenuation of endogenous NE exocytosis,[3],prevented
same,effect on imetit-induced depression of the rise in Cai concentration,SH-SY5Y-H3 cells [4]; [6],completely prevented
same,effect on the imetit response of Ca2+ transients,SH-SY5Y-H3 cells [4]; [6],prevented
ω-conotoxin GVIA [ω-CTX],increase in peak Cai concentration on K+ depolarization,SH-SY5Y cells [1],markedly attenuated
same,concentration-response curve for K+-induced exocytosis of [3H]NE,SH-SY5Y cells [5],shifted markedly downwards
same,concentration-response curve for K+-induced exocytosis of [3H]NE,SH-SY5Y-H3 cells [2],shifted markedly downwards
same,concentration-response curve for K+-induced exocytosis of endogenous NE,[3],shifted markedly downwards
same,increase in peak Cai concentration on K+ depolarization,SH-SY5Y-H3 cells [4],markedly attenuated
